Source: patent publication US20220106301A1, “ACETAMIDO-PHENYLBENZAMIDE DERIVATIVES AND METHODS OF USING THE SAME” (Athenex, Inc., priority 2020, published 2022)

Each molecule was assayed against CYP3A4 (Homo sapiens, UniProt P08684) (assay: Determination of CYP3A4 inhibitory activity (human liver microsome, Luciferin-IPA)). Conditions: CYP3A4 IC50 (nM), 37° C. 11 minutes.
Experimental: The standard final Compound concentrations were 37, 111, 333, 1000, and 3000 nM. 12.5 μL of the Compound dilutions were transferred to a white 96-well plate. […] 25 μL of the buffer was added to each well. The plates were incubated at 37° C. for 11 minutes. 50 μL of luciferin detection reagent (Promega V9002) was added and the plates were incubated at room temperature for 5 minutes. The plate was read with a luminometer.
The dose-response curve and IC50 were obtained by fitting data to nonlinear regression model using GraphPad Prism software (v6.0).

Sequence of CYP3A4 (P08684 whole entry): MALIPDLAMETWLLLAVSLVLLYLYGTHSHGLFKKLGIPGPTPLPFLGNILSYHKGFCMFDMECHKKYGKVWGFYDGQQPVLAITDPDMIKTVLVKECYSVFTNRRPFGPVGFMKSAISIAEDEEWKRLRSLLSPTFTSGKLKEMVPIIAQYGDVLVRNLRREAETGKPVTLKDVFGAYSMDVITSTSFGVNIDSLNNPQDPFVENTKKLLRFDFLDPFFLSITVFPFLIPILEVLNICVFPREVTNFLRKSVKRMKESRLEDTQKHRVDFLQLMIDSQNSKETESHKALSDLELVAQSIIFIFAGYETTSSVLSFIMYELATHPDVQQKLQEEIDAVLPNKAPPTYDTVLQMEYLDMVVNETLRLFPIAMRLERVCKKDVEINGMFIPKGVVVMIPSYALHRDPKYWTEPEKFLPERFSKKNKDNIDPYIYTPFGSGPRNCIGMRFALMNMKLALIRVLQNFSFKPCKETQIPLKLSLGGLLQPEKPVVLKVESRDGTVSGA

Row | SMILES | IC50
1 | COc1cc(NC(=O)c2cc(=O)c3cc(C)ccc3o2)c(C(=O)Nc2ccc(CCN(Cc3cccnc3)Cc3ccc4c(c3)c(C)nn4C)cc2)cc1OC [Compound 66] | 100 to 250 nM
2 | COc1cncc(CN(CCc2ccc(NC(=O)c3cc(OC)c(OC)cc3NC(=O)c3cc(=O)c4ccccc4o3)cc2)Cc2ccc3c(c2)n(C)c(=O)n3C)c1 [Compound 69] | 100 to 250 nM
3 | CCOc1cncc(CN(CCc2ccc(NC(=O)c3cc(OC)c(OC)cc3NC(=O)c3cc(=O)c4cc(C)ccc4o3)cc2)Cc2ccc3c(cnn3C)c2)c1 [Compound 73] | 250 to 500 nM
4 | COc1cc(NC(=O)c2cnc3ccccc3n2)c(C(=O)Nc2ccc(CCN(Cc3cncc(C(C)C)c3)Cc3ccc4c(cnn4C)c3)cc2)cc1OC [Compound 75] | 250 to 500 nM
5 | COc1cc(NC(=O)c2cc(=O)c3cc(C)ccc3o2)c(C(=O)Nc2ccc(CCN(Cc3cncc(C(C)C)c3)Cc3ccc4c(cnn4C)c3)cc2)cc1OC [Compound 76] | > 1000 nM
6 | COc1cc(NC(=O)c2cc(=O)c3cc(C)ccc3o2)c(C(=O)Nc2ccc(CCN(Cc3cncc(C)c3)Cc3ccc4c(cnn4C)c3)cc2)cc1OC [Compound 77] | 250 to 500 nM
7 | COc1cc2c(cc1OC)CN(CCc1ccc(NC(=O)c3ccc(C(=O)OCc4cccnc4)cc3NC(=O)c3cc(=O)c4ccccc4o3)cc1)CC2 [Compound 80] | 500 to 1000 nM
8 | COc1cc(NC(=O)c2cc(=O)c3ccccc3o2)c(C(=O)Nc2ccc(CCN3CCc4cnccc4C3)cc2)cc1OC [Compound 83] | < 100 nM
9 | CCCN(CCc1ccc(NC(=O)c2cc(OC)c(OC)cc2NC(=O)c2cc(=O)c3ccccc3o2)cc1)Cc1cccc(-n2ccnc2)c1 [Compound 90] | 250 to 500 nM
10 | COc1cc(NC(=O)c2cc(=O)c3ccccc3o2)c(C(=O)Nc2ccc(CCN(Cc3cccc(-n4ccnc4)c3)CC(C)C)cc2)cc1OC [Compound 99] | 250 to 500 nM
11 | CCc1cn(-c2cccc(CN(C)CCc3ccc(NC(=O)c4cc(OC)c(OC)cc4NC(=O)c4cc(=O)c5ccccc5o4)cc3)c2)cn1 [Compound 105] | 100 to 250 nM
12 | CCN(CCc1ccc(NC(=O)c2cc(OC)c(OC)cc2NC(=O)c2cc(=O)c3ccccc3o2)cc1)Cc1ccc2c(c1)ncn2C [Compound 109] | > 1000 nM
13 | CCOc1cc(C(=O)Nc2ccc(CCN(C)Cc3cccc(-n4cnc(C)c4)c3)cc2)c(NC(=O)c2cc(=O)c3ccccc3o2)cc1OC [Compound 110] | 500 to 1000 nM
14 | CCOc1cc(C(=O)Nc2ccc(CCN(C)Cc3ccc4c(cnn4C)c3)cc2)c(NC(=O)c2cc(=O)c3ccccc3o2)cc1OC [Compound 111] | > 1000 nM
15 | C#Cc1ccc(CN(C)CCc2ccc(NC(=O)c3cc(OC)c(OC)cc3NC(=O)c3cc(=O)c4ccccc4o3)cc2)cc1 [Compound 115] | > 1000 nM
16 | C#Cc1cccc(CN(C)CCc2ccc(NC(=O)c3cc(OC)c(OC)cc3NC(=O)c3cc(=O)c4ccccc4o3)cc2)c1 [Compound 116] | > 1000 nM
17 | COc1cc(NC(=O)c2cc(=O)c3ccccc3o2)c(C(=O)Nc2ccc(CCN(C)C(=O)CCc3cccnc3)cc2)cc1OC [Compound 119] | 100 to 250 nM
18 | COc1cc(NC(=O)c2cc(=O)c3ccccc3o2)c(C(=O)Nc2ccc(CCN(C)C(=O)CCc3ccncc3)cc2)cc1OC [Compound 120] | 100 to 250 nM
19 | COc1cc(NC(=O)c2cc(=O)c3ccccc3o2)c(C(=O)Nc2ccc(CCN(C)C(=O)c3cccc(-c4cccnc4)c3)cc2)cc1OC [Compound 124] | 250 to 500 nM
20 | COc1cc(NC(=O)c2cc(=O)c3ccccc3o2)c(C(=O)Nc2ccc(CCNCc3cccc(-n4ccnc4)c3)cc2)cc1OC [Compound 125] | 100 to 250 nM
21 | CCN(CCc1ccc(NC(=O)c2cc(OC)c(OC)cc2NC(=O)c2cc(=O)c3ccccc3o2)cc1)Cc1cccc(OCCn2ccnc2)c1 [Compound 130] | < 100 nM
22 | CCN(CCc1ccc(NC(=O)c2cc(OC)c(OC)cc2NC(=O)c2cc(=O)c3ccccc3o2)cc1)Cc1ccc(OC)c(O)c1 [Compound 133] | > 1000 nM
23 | COc1cc(NC(=O)c2cc(=O)c3ccccc3o2)c(C(=O)Nc2ccc(CCN(Cc3ccc4c(cnn4C)c3)Cc3ccc4c(cnn4C)c3)cc2)cc1OC [Compound 137] | > 1000 nM

Now from value to molecule:

Row | IC50 | SMILES
24 | 100 to 250 nM | COc1cncc(CN(CCc2ccc(NC(=O)c3cc(OC)c(OC)cc3NC(=O)c3cc(=O)c4cc(C)ccc4o3)cc2)Cc2ccc3c(c2)c(C)nn3C)c1 [Compound 67]
25 | 100 to 250 nM | COCCOc1cncc(CN(CCc2ccc(NC(=O)c3cc(OC)c(OC)cc3NC(=O)c3cc(=O)c4cc(C)ccc4o3)cc2)Cc2ccc3c(c2)c(C)nn3C)c1 [Compound 68]
26 | 100 to 250 nM | COc1cc(NC(=O)c2cnc3ccccc3n2)c(C(=O)Nc2ccc(CCN(Cc3cncc(C)c3)Cc3ccc4c(cnn4C)c3)cc2)cc1OC [Compound 70]
27 | 250 to 500 nM | CCOc1cncc(CN(CCc2ccc(NC(=O)c3cc(OC)c(OC)cc3NC(=O)c3cnc4ccccc4n3)cc2)Cc2ccc3c(cnn3C)c2)c1 [Compound 74]
28 | 500 to 1000 nM | COc1cc(NC(=O)c2cc(=O)c3ccccc3o2)c(C(=O)Nc2ccc(CCN3CCc4ccncc4C3)cc2)cc1OC [Compound 78]
29 | 100 to 250 nM | COC(=O)c1ccc(C(=O)Nc2ccc(CCN(Cc3cncc(OC)c3)Cc3ccc4c(cnn4C)c3)cc2)c(NC(=O)c2cc(=O)c3ccccc3[nH]2)c1 [Compound 79]
30 | > 1000 nM | COc1cc2c(cc1OC)CN(CCc1ccc(NC(=O)c3ccc(C(=O)OCc4ccncc4)cc3NC(=O)c3cc(=O)c4ccccc4o3)cc1)CC2 [Compound 81]
31 | > 1000 nM | CN(CCc1ccc(NC(=O)c2ccc(C(=O)OCc3cccnc3)cc2NC(=O)c2cc(=O)c3ccccc3o2)cc1)Cc1ccc2c(cnn2C)c1 [Compound 84]
32 | 250 to 500 nM | CN(CCc1ccc(NC(=O)c2ccc(C(=O)OCc3cncs3)cc2NC(=O)c2cc(=O)c3ccccc3o2)cc1)Cc1ccc2c(cnn2C)c1 [Compound 85]
33 | 250 to 500 nM | COc1cc(NC(=O)c2cc(=O)c3ccccc3o2)c(C(=O)Nc2ccc(CCN(C)Cc3cncn3C)cc2)cc1OC [Compound 86]
34 | 100 to 250 nM | COc1cc(NC(=O)c2cc(=O)c3ccccc3o2)c(C(=O)Nc2ccc(CCN(C)Cc3ccc(-n4ccnc4)c(OC)c3)cc2)cc1OC [Compound 87]
35 | 500 to 1000 nM | COc1cc(NC(=O)C2CC(=O)c3ccccc3O2)c(C(=O)Nc2ccc(CCN(C)Cc3ccc(-c4cccnc4)cc3)cc2)cc1OC (centres unmarked) [Compound 88]
36 | > 1000 nM | COc1cc(NC(=O)C2CC(=O)c3ccccc3O2)c(C(=O)Nc2ccc(CCN(C)Cc3ccc(-c4ccncc4)cc3)cc2)cc1OC (centres unmarked) [Compound 89]
37 | 100 to 250 nM | CCCN(CCc1ccc(NC(=O)c2cc(OC)c(OC)cc2NC(=O)c2cc(=O)c3ccccc3o2)cc1)Cc1ccc(-n2ccnc2)c(OC)c1 [Compound 91]
38 | > 1000 nM | COc1cc(NC(=O)c2cc(=O)c3ccccc3o2)c(C(=O)Nc2ccc(CCN(C)Cc3ccc4c(c3)ncn4C)cc2)cc1OC [Compound 98]
39 | > 1000 nM | CCN(CCc1ccc(NC(=O)c2cc(OC)c(OC)cc2NC(=O)c2cc(=O)c3ccccc3o2)cc1)Cc1ccc2c(cnn2C)c1 [Compound 106]
40 | 100 to 250 nM | CCN(CCc1ccc(NC(=O)c2cc(OC)c(OC)cc2NC(=O)c2cc(=O)c3ccccc3o2)cc1)Cc1cccc(-n2cnc(C)c2)c1 [Compound 107]

Row | IC50 | SMILES
41 | 250 to 500 nM | CCOc1cc(C(=O)Nc2ccc(CCN(C)Cc3ccc(-n4ccnc4)cc3)cc2)c(NC(=O)c2cc(=O)c3ccccc3o2)cc1OC [Compound 108]
42 | > 1000 nM | COc1cc(NC(=O)c2cc(=O)c3ccccc3o2)c(C(=O)Nc2ccc(CCN(C)Cc3ccc(-c4cscn4)cc3)cc2)cc1OC [Compound 112]
43 | > 1000 nM | COc1cc(NC(=O)c2cc(=O)c3ccccc3o2)c(C(=O)Nc2ccc(CCN(C)Cc3ccc(-c4ncco4)cc3)cc2)cc1OC [Compound 114]
44 | 250 to 500 nM | COc1cc(NC(=O)c2cc(=O)c3ccccc3o2)c(C(=O)Nc2ccc(CCN(C)Cc3cc(-n4cnc(C)c4)ccc3C)cc2)cc1OC [Compound 117]
45 | 250 to 500 nM | COc1cc(NC(=O)c2cc(=O)c3ccccc3o2)c(C(=O)Nc2ccc(CCN(C)Cc3ccc(-c4cncs4)cc3)cc2)cc1OC [Compound 118]
46 | 500 to 1000 nM | COc1cc(NC(=O)c2cc(=O)c3ccccc3o2)c(C(=O)Nc2ccc(CCN(C)C(=O)c3cccc(-n4ccnc4)c3)cc2)cc1OC [Compound 122]
47 | < 100 nM | COc1cc(NC(=O)c2cc(=O)c3ccccc3o2)c(C(=O)Nc2ccc(CCN(C)C(=O)c3ccc(-n4ccnc4)cc3)cc2)cc1OC [Compound 123]
48 | 500 to 1000 nM | COc1cc(NC(=O)c2cc(=O)c3ccccc3o2)c(C(=O)Nc2ccc(CCN(C)Cc3cnc(-n4ccnc4)nc3)cc2)cc1OC [Compound 126]
49 | < 100 nM | CCN(CCc1ccc(NC(=O)c2cc(OC)c(OC)cc2NC(=O)c2cc(=O)c3ccccc3o2)cc1)Cc1cccc(OC[C@@H]2CO[C@@](Cn3ccnc3)(c3ccc(Cl)cc3Cl)O2)c1 [Compound 127]
50 | 500 to 1000 nM | COc1cc(NC(=O)c2cc(=O)c(O)co2)c(C(=O)Nc2ccc(CCN(C)Cc3ccc(-n4ccnc4)cc3)cc2)cc1OC [Compound 128]
51 | > 1000 nM | COc1cc(NC(=O)c2cc(=O)c(O)co2)c(C(=O)Nc2ccc(CCN(C)Cc3cccc(-n4ccnc4)c3)cc2)cc1OC [Compound 129]
52 | 250 to 500 nM | CCN(CCc1ccc(NC(=O)c2cc(OC)c(OC)cc2NC(=O)c2cc(=O)c3ccccc3o2)cc1)Cc1ccc(OCCn2ccnc2)cc1 [Compound 131]
53 | 100 to 250 nM | CCN(CCc1ccc(NC(=O)c2cc(OC)c(OC)cc2NC(=O)c2cc(=O)c3ccccc3o2)cc1)Cc1ccc(OC)c(OCCn2ccnc2)c1 [Compound 132]
54 | 100 to 250 nM | CCN(CCc1ccc(NC(=O)c2cc(OC)c(OC)cc2NC(=O)c2cc(=O)c3ccccc3o2)cc1)Cc1ccc(OCCn2ccnc2)c(OC)c1 [Compound 134]
55 | 500 to 1000 nM | CCN(CCc1ccc(NC(=O)c2cc(OC)c(OC)cc2NC(=O)c2cc(=O)c3ccccc3o2)cc1)Cc1ccc(O)c(OC)c1 [Compound 135]
56 | > 1000 nM | COc1cc(NC(=O)c2cnc3c(O)cccc3c2)c(C(=O)Nc2ccc(CCN(C)Cc3ccc4c(cnn4C)c3)cc2)cc1OC [Compound 136]
